Earlier results, collected in patent US20100144626A1, “Treatment of Multi-Drug Resistant Bacterial Infections” (priority 2006, published 2010).
Values after ≈ are worked out from the molar mass of the structure shown.

How the values were obtained:
[1] = in vivo; cited from earlier work
[2] = in vivo, cited from earlier work
[3] = in vivo, cited from earlier work; remark: listed apart in the source
[4] = system: MRSA; details: cited from earlier work

Structure (SMILES): Clc1ccccc1C(c1ccccc1)(c1ccccc1)n1ccnc1 [Clotrimazole, 1-[(2-chlorophenyl)diphenylmethyl]-1H-imidazole]
- concentration in the stratum corneum [1]: 100 mcg/cm3
- concentration in the stratum reticulare [1]: 0.5-1 mcg/cm3
- concentration in the subcutis [1]: 0.1 mcg/cm3
- administered dose detected in urine as active drug ([2]; po): Less than 1%
- half-life ([2]; po): around 3 hours
- absorption following oral administration [2]: well absorbed

Structure (SMILES): Clc1ccc(COC(Cn2ccnc2)c2ccc(Cl)cc2Cl)cc1 (stereo not shown) [Econazole]
- tolerability of single oral dose ([3]; po): tolerated
- number of metabolites [3]: more than 20

Structure (SMILES): Clc1ccc(COC(Cn2ccnc2)c2ccc(Cl)cc2Cl)c(Cl)c1 (stereo not shown) [Miconazole, 1-[2-(2,4-dichlorophenyl)-2-[(2,4-dichlorophenyl)methoxy]ethyl]-1H-imidazole]
- anti-MRSA activity in presence of lipophilic a-tocopherol (vitamin E) ([4]; Lee et al. 1999): completely suppressed
- minimum inhibitory concentration against MRSA ([4]; Lee et al., J. Microbiol. Biotechnol. 9 (1999), estimated): 0.78 µg/mL (≈ 1.87 µM)
